Assay results reported in PubChem BioAssay AID248 (DTP/NCI, 2004).
Values joined by “and” are separate entries in the source; they are usually repeats but may differ in a detail not shown here. Identical values can stand only once. Toxic doses and inconclusive results are not listed. Cut-off read from the data, not from the text of the source: active = T/C of 150% or more; inactive = T/C below 125%.

System: L1210 leukemia ip in BDF1 mice, survival T/C
Test: NCI In Vivo Anticancer Drug Screen. Data for tumor model L1210 Leukemia (intraperitoneal) in B6D2F1 (BDF1) mice
Settings: endpoint: mean survival time, higher = longer survival
Outline: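 Each compound was tested against a transplantable tumor grown in mice. The endpoint was survival, with treated animals benchmarked against vehicle controls as a simple ratio.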

[1] = dose: 100.0 mg/kg/injection, schedule: Q01DX001 (ip), vehicle: saline with Tween-80
[2] = dose: 100.0 mg/kg/injection, schedule: Q01DX009 (ip), vehicle: saline with Tween-80
[3] = dose: 100.0 mg/kg/injection, schedule: Q04DX002 (ip), vehicle: saline with Tween-80
[4] = dose: 100.0 mg/kg/injection, schedule: Q04DX003 (ip), vehicle: saline with Tween-80
[5] = dose: 200.0 mg/kg/injection, schedule: Q01DX001 (ip), vehicle: saline with Tween-80
[6] = dose: 200.0 mg/kg/injection, schedule: Q01DX009 (ip), vehicle: saline with Tween-80
[7] = dose: 200.0 mg/kg/injection, schedule: Q04DX002 (ip), vehicle: saline with Tween-80
[8] = dose: 400.0 mg/kg/injection, schedule: Q01DX001 (ip), vehicle: saline with Tween-80
[9] = dose: 400.0 mg/kg/injection, schedule: Q01DX009 (ip), vehicle: saline with Tween-80
[10] = dose: 400.0 mg/kg/injection, schedule: Q04DX002 (ip), vehicle: saline with Tween-80
[11] = dose: 100.0 mg/kg/injection, schedule: Q04DX002 (ip), vehicle: Klucel (hydroxypropylcellulose) (HPC)
[12] = dose: 200.0 mg/kg/injection, schedule: Q04DX003 (ip), vehicle: saline with Tween-80
[13] = dose: 400.0 mg/kg/injection, schedule: Q04DX003 (ip), vehicle: saline with Tween-80
[14] = dose: 200.0 mg/kg/injection, schedule: Q04DX002 (ip), vehicle: Klucel (hydroxypropylcellulose) (HPC)
[15] = dose: 50.0 mg/kg/injection, schedule: Q01DX001 (ip), vehicle: carboxymethylcellulose (CMC)
[16] = dose: 100.0 mg/kg/injection, schedule: Q01DX001 (ip), vehicle: carboxymethylcellulose (CMC)
[17] = dose: 200.0 mg/kg/injection, schedule: Q01DX001 (ip), vehicle: carboxymethylcellulose (CMC)
[18] = dose: 400.0 mg/kg/injection, schedule: Q01DX001 (ip), vehicle: carboxymethylcellulose (CMC)
[19] = dose: 100.0 mg/kg/injection, schedule: Q04DX003 (ip), vehicle: Klucel (hydroxypropylcellulose) (HPC)
[20] = dose: 200.0 mg/kg/injection, schedule: Q04DX003 (ip), vehicle: Klucel (hydroxypropylcellulose) (HPC)
[21] = dose: 400.0 mg/kg/injection, schedule: Q04DX003 (ip), vehicle: Klucel (hydroxypropylcellulose) (HPC)

Measured: T/C

Cc1ccc(Cl)cc1NC(=O)Nc1ccccc1F
inactive: dose: 25.0 mg/kg/injection, schedule: Q04DX003 (ip), vehicle: saline with Tween-80 94 % of control | dose: 50.0 mg/kg/injection, schedule: Q04DX003 (ip), vehicle: saline with Tween-80 86 % of control and 91 % of control | [1] 92 % of control | [2] 103 % of control and 105 % of control | [3] 98 % of control and 92 % of control | [4] 104 % of control and 90 % of control | [5] 92 % of control | [6] 98 % of control and 90 % of control | [7] 95 % of control and 92 % of control | [8] 89 % of control | [9] 94 % of control and 92 % of control | [10] 90 % of control and 92 % of control

OCC1OC(n2ncc3ccccc32)C(O)C1O (stereo not given)
inactive: dose: 50.0 mg/kg/injection, schedule: Q01DX005 (ip), vehicle: other 109 % of control | dose: 100.0 mg/kg/injection, schedule: Q01DX005 (ip), vehicle: other 105 % of control | dose: 200.0 mg/kg/injection, schedule: Q01DX005 (ip), vehicle: other 98 % of control

COC1C=COC2(C)Oc3c(C)c(O)c4c(c3C2=O)/C(=N/C2CCC(O)OC2C)C=C(NC(=O)/C(C)=C\C(=O)C2CC2C(O)C(C)C(O)C(C)C(OC(C)=O)C1C)C4=O (stereo not given)
inactive: dose: 50.0 mg/kg/injection, schedule: Q04DX002 (ip), vehicle: saline with Tween-80 95 % of control | [3] 95 % of control

OCc1cccc(F)c1
inactive: dose: 100.0 mg/kg/injection, schedule: Q01DX009 (ip), vehicle: saline 98 % of control | dose: 100.0 mg/kg/injection, schedule: Q04DX003 (ip), vehicle: saline 105 % of control | dose: 200.0 mg/kg/injection, schedule: Q01DX009 (ip), vehicle: saline 95 % of control | dose: 200.0 mg/kg/injection, schedule: Q04DX003 (ip), vehicle: saline 102 % of control | dose: 400.0 mg/kg/injection, schedule: Q01DX009 (ip), vehicle: saline 98 % of control | dose: 400.0 mg/kg/injection, schedule: Q04DX003 (ip), vehicle: saline 104 % of control

O=C(O)c1cccc2c1oc1c(O)cccc12
inactive: dose: 25.0 mg/kg/injection, schedule: Q04DX002 (ip), vehicle: Klucel (hydroxypropylcellulose) (HPC) 93 % of control | dose: 50.0 mg/kg/injection, schedule: Q04DX002 (ip), vehicle: Klucel (hydroxypropylcellulose) (HPC) 90 % of control | [11] 93 % of control

CCN(CC)c1ccc2c(c1)Cc1ccccc1-2
inactive: [4] 100 % of control | [12] 98 % of control | [13] 100 % of control

O=C(O)c1cc(Br)c(Cl)c(Br)c1
inactive: [11] 100 % of control | [14] 100 % of control

CC(c1ccccc1)N(N=O)C(=O)c1ccc2ccccc2c1 (stereo not given)
inactive: dose: 17.0 mg/kg/injection, schedule: Q04DX002 (ip), vehicle: saline 94 % of control | dose: 33.0 mg/kg/injection, schedule: Q04DX002 (ip), vehicle: saline 105 % of control | dose: 66.0 mg/kg/injection, schedule: Q04DX002 (ip), vehicle: saline 97 % of control

NC(=O)NC1c2ccccc2-c2ccccc21
inactive: [15] 93 % of control | [16] 93 % of control | [17] 93 % of control | [18] 93 % of control

CC(=O)OC1CCC2(C)C(=CCC3C2CCC2(C)C(C(C)N)CCC32)C1 (stereo not given)
inactive: dose: 100.0 mg/kg/injection, schedule: Q01DX001 (sc), vehicle: steriod suspending solution 90 % of control | dose: 400.0 mg/kg/injection, schedule: Q01DX001 (sc), vehicle: steriod suspending solution 90 % of control

COC(=O)C1CN(C)CCC1=O (stereo not given)
inactive: dose: 100.0 mg/kg/injection, schedule: Q01DX001 (ip), vehicle: saline 97 % of control | dose: 200.0 mg/kg/injection, schedule: Q01DX001 (ip), vehicle: saline 106 % of control | dose: 400.0 mg/kg/injection, schedule: Q01DX001 (ip), vehicle: saline 95 % of control

CCCCNC(=O)C1CC2c3c(Br)ccc4c3C(CC2N(C)C1)CN4C(C)=O (stereo not given)
inactive: dose: 20.0 mg/kg/injection, schedule: Q01DX001 (ip), vehicle: Klucel (hydroxypropylcellulose) (HPC) 98 % of control

Nc1ncc(C(=O)c2ccccc2)cc1Br
inactive: [19] 97 % of control | [20] 97 % of control | [21] 97 % of control

NCCSc1ccccc1C(=O)O
inactive: [19] 92 % of control | [20] 112 % of control | [21] 102 % of control

CC(=O)N1c2ccccc2Sc2ccc(C(=O)CCl)cc21
inactive: [15] 96 % of control | [16] 98 % of control | [17] 96 % of control | [18] 98 % of control

CCOC(=O)CCc1c(C(=O)OCC)[nH]c(C)c1C(=O)OCc1ccccc1
inactive: [19] 100 % of control | [20] 101 % of control | [21] 108 % of control

CCOc1ccc(N=Nc2ccc(N)cc2N)cc1
inactive: [11] 96 % of control | [14] 101 % of control | dose: 400.0 mg/kg/injection, schedule: Q04DX002 (ip), vehicle: Klucel (hydroxypropylcellulose) (HPC) 96 % of control

CC(=O)C1CCC2C3=CC=C4CC(OC(=O)C5CCCCC5)CCC4(C)C3=CCC12C (stereo not given)
inactive: [2] 100 % of control | [6] 89 % of control | [9] 108 % of control

COC(=O)c1n[nH]c(C)c1N=NN1CCC(C(N)=O)CC1
inactive: dose: 9.38 mg/kg/injection, schedule: Q01DX001 (ip), vehicle: other 118 % of control | dose: 18.75 mg/kg/injection, schedule: Q01DX001 (ip), vehicle: other 109 % of control | dose: 37.5 mg/kg/injection, schedule: Q01DX001 (ip), vehicle: other 101 % of control

COC1OC2COC(c3ccccc3)OC2C2OC12 (stereo not given)
inactive: [1] 94 % of control | [2] 102 % of control | [3] 100 % of control and 90 % of control | [4] 91 % of control and 86 % of control | [5] 88 % of control | [6] 102 % of control | [7] 96 % of control and 111 % of control | [12] 100 % of control and 88 % of control | [8] 88 % of control | [9] 97 % of control | [10] 100 % of control and 97 % of control | [13] 90 % of control and 93 % of control

CC(=O)CSc1nc2ccccc2s1
inactive: dose: 50.0 mg/kg/injection, schedule: Q01DX009 (ip), vehicle: Klucel (hydroxypropylcellulose) (HPC) 95 % of control | dose: 100.0 mg/kg/injection, schedule: Q01DX009 (ip), vehicle: Klucel (hydroxypropylcellulose) (HPC) 104 % of control | dose: 200.0 mg/kg/injection, schedule: Q01DX009 (ip), vehicle: Klucel (hydroxypropylcellulose) (HPC) 111 % of control

O=C(c1cccs1)c1cscc1C(=O)c1cccs1
inactive: [1] 95 % of control | [5] 95 % of control | [8] 92 % of control

CC(=O)NC1C(Oc2ccccc2)OC(C(O)CO)C1O (stereo not given)
inactive: dose: 100.0 mg/kg/injection, schedule: Q01DX001 (sc), vehicle: saline 108 % of control | dose: 200.0 mg/kg/injection, schedule: Q01DX001 (sc), vehicle: saline 103 % of control | dose: 400.0 mg/kg/injection, schedule: Q01DX001 (sc), vehicle: saline 108 % of control

O=S1(=O)OC(c2ccccc2)(c2ccccc2)c2ccccc21
inactive: [16] 100 % of control | [17] 100 % of control | [18] 100 % of control
